From patent US12173188B2, “Ultraviolet absorbing agent, ultraviolet absorbing composition, ultraviolet absorbing film, laminate, and novel compound” (FUJIFILM CORPORATION, priority 2019, dated 2024)

How the values were obtained:
[1] = Solubility in distilled water at 25° C.; settings: 24 hours standing
Procedure: The solubility of the specific ultraviolet absorbing agent in water in the present disclosure can be measured by the following method from the amount of the specific ultraviolet absorbing agent dissolved in 10 g of distilled water at 25° C.
After mixing 10 g of distilled water with 1 g of the specific ultraviolet absorbing agent, the resultant mixture is irradiated with ultrasonic waves at a liquid temperature of 25° C. for 15 minutes and then allowed to stand for 24 hours while the liquid temperature is maintained at 25° C. For ultrasonic irradiation, a desktop ultrasonic cleaner 1510, manufactured by Branson Ultrasonics, Emerson Japan, Ltd. is used.
After being allowed to stand for 24 hours, filtration is carried out through a membrane filter (0.1 μm mesh, manufactured by [sequence] Co., Ltd.). The unfiltered specific ultraviolet absorbing agent is collected, dried, and then weighed. The amount of the unfiltered specific ultraviolet absorbing agent is subtracted from 1 g of the specific ultraviolet absorbing agent to obtain an amount of the specific ultraviolet absorbing agent dissolved in water, and the solubility of the specific ultraviolet absorbing agent in water is calculated from that the obtained amount value.

[2] = Light fastness of laminate, metal halide lamp irradiation; type: physicochemical; settings: change in transmittance at 380 nm after 60 hours metal halide lamp, 90 mW/cm^2, 63° C., 50% RH
Procedure: First, the transmittance of the obtained laminate of the glass plate and the ultraviolet absorbing film at a wavelength of 380 nm was measured using a spectrophotometer (model number: UV 3150) manufactured by Shimadzu Corporation.
Next, using a super-accelerated weather fastness tester [product name: EYE SUPER UV Tester, IWASAKI ELECTRIC Co., Ltd.], the obtained laminate of the glass plate and the ultraviolet absorbing film was irradiated with light (about 290 nm […]) of a metal halide lamp for 60 hours under the conditions of an illuminance of 90 mW/cm^2 ([…]), a temperature of 63° C., and a relative humidity of 50%.
After light irradiation, the transmittance of the obtained laminate of the glass plate and the ultraviolet absorbing film at a wavelength of 380 nm was measured in the same manner as described above using a spectrophotometer (model number: UV 3150) manufactured by Shimadzu Corporation.
The width of change in transmittance at a wavelength of 380 nm before and after the light irradiation was calculated, and the light fastness was evaluated as “particularly good” in a case where the width of change was less than 5%, the light fastness was evaluated as “good” in a case where the width of change was 5% or more and less than 10%, and the light fastness was evaluated as “bad” in a case where the width of change was 10% or more.

[3] = Moist heat resistance test of laminate (60° C., 90% RH, 160 hours); type: physicochemical; settings: for Haze after moist heating: after 160 hours at 60° C.; for Haze after moist heating / Moist heat resistance: 90% RH; for Moist heat resistance: change in transmittance at 380 nm after 160 hours at 60° C.
Procedure: The moist heat test was carried out with a constant temperature and humidity device (IG420, manufactured by Yamato Scientific Co., Ltd.) under the conditions of a temperature of 60° C. and a humidity of 90% RH. The transmittance at 380 nm after the lapse of 160 hours was measured by the above method. The width of change in transmittance at a wavelength of 380 nm before and after the moist heat resistance test was calculated, and the moist heat resistance was evaluated as “particularly good” in a case where the width of change was less than 5%, the moist heat resistance was evaluated as “good” in a case where the width of change was 5% or more and less than 10%, and the moist heat resistance was evaluated as “bad” in a case where the width of change was 10% or more.
The haze after the moist heat resistance test was measured by the same method as in (2. Initial haze) described above.

[4] = Maximum absorption wavelength by spectrophotometer; type: physicochemical; settings: H2O
Procedure: The maximum absorption wavelength of the ultraviolet absorbing agent can be measured, for example, using a spectrophotometer. Examples of the device include a spectrophotometer UV3600 and an ultraviolet-visible-near infrared spectrophotometer UV 3150, manufactured by Shimadzu Corporation. In the present disclosure, the maximum absorption wavelength of the ultraviolet absorbing agent is measured using a spectrophotometer UV3600.
The measurement is carried out at room temperature (25° C.), and the absorbance is measured using a spectrophotometer to obtain an absorption spectrum while air is referenced as a control as the measurement condition.
In a case where an absorbance at a wavelength in a predetermined wavelength range is measured, the maximum absorption wavelength, the transmittance, and the like can be calculated.

[5] = Molar absorption coefficient in pure water; type: physicochemical; settings: 1.0 mg in 100 mL pure water, 1 cm cell, at maximum absorption wavelength; in L/(mol·cm) (unit assumed)
Procedure: After dissolving 1.0 mg of a sample in 100 mL of pure water, the absorbance of the aqueous solution was measured in a 1 cm cell using a spectrophotometer (model number: UV 3150) manufactured by Shimadzu Corporation. From the measurement results, the molar absorption coefficient was calculated from the value of the absorbance at the maximum absorption wavelength using the Lambert-Beer law.

[6] = 5.0 parts agent/45.0 parts PVA film
[7] = 2.0 parts agent/98.0 parts PVA film

Solubility (25° C.) [1] [% by mass]	SMILES	Light fastness [2, 6]	Haze after moist heating [3, 6] [%]	Moist heat resistance [3, 6]	also measured
2.9	N#CC(C(=O)c1ccccc1)=C1Sc2c(OCCCS(=O)(=O)[O-])ccc(OCCCS(=O)(=O)[O-])c2S1.[Na+].[Na+] [Compound M-2]	–	–	–	–
2.9	CCCCOc1ccc(OCCCC)c2c1SC(=C1C(=O)N(CCCCC(=O)[O-])N(CCCCC(=O)[O-])C1=O)S2.[Na+].[Na+] [Compound M-20]	–	–	–	–
–	CCCCN1C(=O)C(=C2Sc3c(OCCCCS(=O)(=O)[O-])c4c(c(OCCCCS(=O)(=O)[O-])c3S2)SC(=C2C(=O)N(CCCC)N(CCCC)C2=O)S4)C(=O)N1CCCC.[Na+].[Na+] [Compound H-4, reference compound]	Good (the width of change was 5% or more and less than 10%)	18	Bad (the width of change was 10% or more)	haze after the moist heat resistance test ([3]; in words, summary of Table 1): significantly increased
2.9	O=C1C(=C2Sc3c(OCCS(=O)(=O)[O-])ccc(OCCS(=O)(=O)[O-])c3S2)C(=O)N(CCCS(=O)(=O)[O-])N1CCCS(=O)(=O)[O-].[Na+].[Na+].[Na+].[Na+] [Compound M-16]	–	–	–	–
3.3	O=C1C(=C2Sc3c(OCCCCS(=O)(=O)[O-])ccc(OCCCCS(=O)(=O)[O-])c3S2)C(=O)N(c2ccccc2)N1c1ccccc1.[Na+].[Na+] [Compound M-13]	–	–	–	–
–	O=C(c1ccc(O)cc1O)c1ccc(O)cc1O [Compound H-1, reference compound]	Bad (the width of change was 10% or more)	6.1	Bad (the width of change was 10% or more)	–
2.0	N#CC(C#N)=C1Sc2c(OCCCCP(=O)(O)O)ccc(OCCCCP(=O)(O)O)c2S1 [Compound M-7]	–	–	–	–
3.6	CCCCN1C(=O)C(=C2Sc3c(OCCCS(=O)(=O)[O-])ccc(OCCCS(=O)(=O)[O-])c3S2)C(=O)N1CCCC.[Na+].[Na+] [Compound M-12]	–	–	–	–
3.0	CCCCN1C(=O)C(=C2Sc3c(OCCCCP(=O)(O)O)ccc(OCCCCP(=O)(O)O)c3S2)C(=O)N1CCCC [Compound M-17]	–	–	–	–
2.1	CCCCOc1ccc(OCCCC)c2c1SC(=C(C#N)C(=O)OCCCCS(=O)(=O)[O-])S2.[Na+] [Compound M-9]	–	–	–	–
3.7	CCCCOc1ccc(OCCCCS(=O)(=O)[O-])c2c1SC(=C1C(=O)N(CCCCS(=O)(=O)[O-])N(CCCCS(=O)(=O)[O-])C1=O)S2.[Na+].[Na+].[Na+] [Compound M-14]	–	–	–	–
2.6	N#CC(C#N)=C1Sc2c(OC(=O)CCC(=O)[O-])ccc(OC(=O)CCC(=O)[O-])c2S1.[Na+].[Na+] [Compound M-8]	Particularly good (the width of change was less than 5%)	0.4	Good (the width of change was 5% or more and less than 10%)	Light fastness [2, 7]: Particularly good (the width of change was less than 5%); Haze after moist heating [3, 7]: 0.3%; Moist heat resistance [3, 7]: Particularly good (the width of change was less than 5%)
3.2	CC(C)(C)C(=O)C(C#N)=C1Sc2c(OCCCCS(=O)(=O)[O-])ccc(OCCCCS(=O)(=O)[O-])c2S1.[Na+].[Na+] [Compound M-1]	–	–	–	–
1.9	CCCCOc1ccc(OCCCC)c2c1SC(=C(C#N)C(=O)OCCCCP(=O)(O)O)S2 [Compound M-10]	–	–	–	–
–	CCCCN1C(=O)C(=C2Sc3c(OCCCCS(=O)(=O)[O-])ccc(OCCCCS(=O)(=O)[O-])c3S2)C(=O)N1CCCC.[Na+].[Na+] [Compound M-11]	Particularly good (the width of change was less than 5%)	0.26	Particularly good (the width of change was less than 5%)	Maximum absorption wavelength [4]: 387 nm; Light fastness [2, 7]: Particularly good (the width of change was less than 5%); Haze after moist heating [3, 7]: 0.1%; Moist heat resistance [3, 7]: Particularly good (the width of change was less than 5%); Molar absorption coefficient [5]: 35,900
3.1	CON=CC(C#N)=C1Sc2c(OCCCCS(=O)(=O)[O-])ccc(OCCCCS(=O)(=O)[O-])c2S1.[Na+].[Na+] [Compound M-5]	Particularly good (the width of change was less than 5%)	0.28	Particularly good (the width of change was less than 5%)	Maximum absorption wavelength [4]: 390 nm; Molar absorption coefficient [5]: 27,400
3.0	CCCCOc1ccc(OCCCC)c2c1SC(=C1C(=O)N(CCCCP(=O)(O)O)N(CCCCP(=O)(O)O)C1=O)S2 [Compound M-19]	–	–	–	–
–	CCCCC(CC)COc1ccc(OCC(CC)CCCC)c2c1SC(=C1C(=O)N(CCCC)N(CCCC)C1=O)S2 (centres unmarked) [Compound H-5, reference compound]	Bad (the width of change was 10% or more)	68	Bad (the width of change was 10% or more)	–
–	O=S(=O)([O-])CCNc1nc(NCCS(=O)(=O)[O-])nc(Nc2ccc(C=Cc3ccc(Nc4nc(NCCS(=O)(=O)[O-])nc(NCCS(=O)(=O)[O-])n4)cc3S(=O)(=O)[O-])c(S(=O)(=O)[O-])c2)n1.[Na+].[Na+].[Na+].[Na+].[Na+].[Na+] [Compound H-3, reference compound]	Bad (the width of change was 10% or more)	9.5	Bad (the width of change was 10% or more)	–
3.1	N#CC(C#N)=C1Sc2c(OCCCCS(=O)(=O)[O-])ccc(OCCCCS(=O)(=O)[O-])c2S1.[Na+].[Na+] [Compound M-3]	Particularly good (the width of change was less than 5%)	0.24	Particularly good (the width of change was less than 5%)	Maximum absorption wavelength [4]: 372 nm; Light fastness [2, 7]: Particularly good (the width of change was less than 5%); Haze after moist heating [3, 7]: 0.1%; Moist heat resistance [3, 7]: Particularly good (the width of change was less than 5%); Molar absorption coefficient [5]: 28,100
2.9	CCCCC(CC)COc1ccc(OCC(CC)CCCC)c2c1SC(=C1C(=O)N(CCCCS(=O)(=O)[O-])N(CCCCS(=O)(=O)[O-])C1=O)S2.[Na+].[Na+] (centres unmarked) [Compound M-15]	–	–	–	–
